According to patent US20250170101A1, “MONOACYLGLYCEROL LIPASE INHIBITORS AND USE THEREOF FOR THE TREATMENT AND MANAGEMENT OF PAIN AND RELATED CONDITIONS” (Psy Therapeutics, Inc., priority 2021, published 2025):
Read-outs that look alike come from different tables or passages of the source. Each block holds one molecule with its values, some of them ahead of it.

Columns and labels:
Assay type in all cases: biochemical
MAGL enzyme = biological target: T1, MAGL enzyme (Homo sapiens, UniProt Q99685); experiment: MAGL reversible inhibition assay (washout), Example 22; set-up: % MAGL activity returning after washout: concentration or dose not given beside the values
T1 sequence (Q99685 1-303): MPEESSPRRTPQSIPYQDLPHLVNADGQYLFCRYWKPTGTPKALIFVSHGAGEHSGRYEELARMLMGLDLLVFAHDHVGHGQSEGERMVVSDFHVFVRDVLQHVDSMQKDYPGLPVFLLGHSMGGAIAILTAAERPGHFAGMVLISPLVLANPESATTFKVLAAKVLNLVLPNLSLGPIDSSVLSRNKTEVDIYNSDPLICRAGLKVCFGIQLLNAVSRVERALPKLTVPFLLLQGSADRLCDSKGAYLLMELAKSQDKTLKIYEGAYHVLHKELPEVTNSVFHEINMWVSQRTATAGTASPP
Description: The reversible mechanism of MAGL inhibition of a test compound of Formula (I) can be determined. Flag-tagged MAGL enzyme will be immobilized on anti-Flag beads. Immobilized enzyme will be incubated+/−inhibitor at a dose that produces complete inhibition. Colorimetric substrate (4-NPA) will be added and the reaction monitored on a plate reader for 30 minutes to verify complete inhibition. Immobilized enzyme will then be washed thoroughly to remove the inhibitor, and fresh substrate will be added. The reaction will be monitored for an additional 30 minutes; returning enzymatic activity will indicate reversibility of inhibition. […]
For some test compounds, % activity returning after washout may be less than 100%/if complete compound unbinding takes longer than 30 minutes.

human recombinant FAAH = biological target: T2, human recombinant FAAH (Homo sapiens, UniProt O00519); experiment: FAAH counter screen (Cayman FAAH Inhibitor Screening Assay Kit), Example 21; details: Method A: starting concentration of 100 μM
T2 construct: purchased Cayman kit Item No. 10005196; FAAH enzyme 700302
T2 sequence (O00519 1-579): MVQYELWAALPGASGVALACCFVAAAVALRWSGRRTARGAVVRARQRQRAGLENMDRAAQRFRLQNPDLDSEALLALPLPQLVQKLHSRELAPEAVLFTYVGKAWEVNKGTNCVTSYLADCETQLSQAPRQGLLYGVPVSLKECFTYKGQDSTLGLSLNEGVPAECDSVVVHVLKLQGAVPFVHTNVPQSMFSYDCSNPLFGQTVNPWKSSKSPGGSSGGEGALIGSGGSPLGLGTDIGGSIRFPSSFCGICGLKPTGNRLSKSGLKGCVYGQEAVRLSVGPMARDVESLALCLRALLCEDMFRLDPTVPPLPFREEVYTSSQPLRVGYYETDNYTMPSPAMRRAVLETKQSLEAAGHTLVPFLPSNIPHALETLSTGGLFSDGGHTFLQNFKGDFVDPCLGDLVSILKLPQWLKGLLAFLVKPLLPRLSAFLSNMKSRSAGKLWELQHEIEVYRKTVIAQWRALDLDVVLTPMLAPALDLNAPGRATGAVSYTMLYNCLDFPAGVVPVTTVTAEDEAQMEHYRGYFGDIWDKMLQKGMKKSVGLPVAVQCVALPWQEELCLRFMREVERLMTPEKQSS
Description: Comparative compound potency at FAAH can be obtained with the following assay.
MAGL inhibitor compounds were also counter-screened for FAAH inhibition potency using the following assay. Assessment of FAAH inhibition was performed using Fatty Acid Amide Hydrolase Inhibitor Screening Assay Kit (Cayman Item No. 10005196) following manufacture's instruction with some modifications. The kit utilizes human recombinant FAAH and the fluorescent substrate, AMC Arachidonoyl amide (AAMCA). 5 μL of assay buffer (125 mM Tris, pH 9.0, 1 mM EDTA, i.e. ethylenediaminetetraacetic acid) was added to a 384-well black plate (Corning, 3573). Test compounds and control inhibitor JZL-195 (Cayman Chemical, 13668) were tested in 10-concentration IC50 mode with 3-fold serial dilution at a starting concentration of 100 μM and 10 μM, respectively. 300 nL or 30 nL of test compounds were delivered into a 384-well black plate (Corning, 3573) using a Labcyte Echo, followed by addition of 15 μL of FAAH enzyme (Cayman, 700302) in assay buffer. After a 5-minute pre-incubation at room temperature, 10 μL of AAMCA was added in assay buffer to start the reaction. Final concentration of FAAH enzyme is not specified and AAMCA substrate was used at the 20 uM. After these dilutions, the final concentration of the test compounds ranged from 100 μM to 5.08 nM or 10 μM down to 0.508 nM. The reaction was allowed to progress for 60 minutes, while the plate was read on an Envision plate reader at an Ex/Em of 350/460 nm with readings every minute. The data was analyzed in Microsoft Excel, using the slope between 30 and 59 minutes. The average of the no-enzyme wells (background) was subtracted from the data. The background-subtracted slope data was converted to % activity using the average of wells with enzyme and DMSO vehicle. IC50 values were calculated using GraphPad software (Sigmoidal dose response, variable slope equation).
Compounds listed in Table D2 were tested in the FAAH Counterscreen of Example 21

human MAGL = biological target: T3, human MAGL (Homo sapiens, UniProt Q99685); experiment: MAGL inhibition potency (IC50) with 4NPA substrate, Example 20, methods of Table C
T3 construct: recombinant MAGL enzyme (aa 2-303 RBC, internal preparation)
T3 sequence (Q99685 2-303): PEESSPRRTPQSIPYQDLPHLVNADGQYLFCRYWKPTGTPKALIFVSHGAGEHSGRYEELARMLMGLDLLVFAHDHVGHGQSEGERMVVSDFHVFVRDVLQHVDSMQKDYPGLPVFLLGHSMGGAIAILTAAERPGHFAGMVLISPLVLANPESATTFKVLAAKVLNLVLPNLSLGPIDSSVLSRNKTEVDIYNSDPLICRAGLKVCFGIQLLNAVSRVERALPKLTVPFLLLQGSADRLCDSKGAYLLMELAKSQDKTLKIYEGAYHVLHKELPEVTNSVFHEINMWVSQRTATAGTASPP
From the text: Cayman's Monoacylglycerol Lipase Inhibitor Screening Assay provides a method for screening human MAGL inhibitors. MAGL hydrolyzes 4-nitrophenylacetate resulting in a yellow product, 4-nitrophenol, with an absorbance of 405-412 nm. The monoacylglycerol lipase inhibitor screening assay kit from Cayman Chemical was used to measure the MAGL potency for the compounds in Table 4 and Table 5. Cayman's Monoacylglycerol Lipase Inhibitor Screening Assay provides a method for screening human MAGL inhibitors. MAGL hydrolyzes 4-nitrophenylacetate resulting in a yellow product, 4-nitrophenol, with an absorbance of 405-412 nm. MAGL Inhibition was measured by the following assay. Monoacylglycerol Lipase (MAGL) inhibition was measured using recombinant MAGL enzyme (aa 2-303 RBC, internal preparation) and the substrate 4-Nitrophenyl acetate (4NPA) (Sigma-Aldrich, N8130). Hydrolysis of the substrate in the presence of the enzyme was measured by absorbance at 405 nm. 10 μL of assay buffer (10 mM Tris pH 7.5, 1 mM EDTA, 0.9% DMSO) was added to a black 384-well non-binding plate with clear bottom (Greiner, 781906) for each reaction. […] DMSO control wells were included for reference. A 10.8 nM (1.8×) MAGL mix in assay buffer was prepared, with 25 μL added to each reaction well, for a final assay concentration of 6 nM. No enzyme wells received 25 μL of buffer. Plate was incubated at room temperature for 30 minutes. 35 mM solution of 4NPA in methanol was prepared daily. A 4.5×4NPA substrate solution was prepared in assay buffer and 10 μL was added to each reaction well, for a final assay concentration of 0.25 mM. Plate was spun for 1 minute at 1000 rpm before measuring absorbance using a CLARIOstar plate reader (BMG Labtech). A kinetic reading at 405 nm was done every minute for 30 minutes. Data was analyzed using the linear slope of the reaction progress curve and the average of the no-enzyme wells (background) was subtracted from the data. The background-subtracted slope data was converted to % activity using the average of wells with enzyme and DMSO vehicle. IC50s were calculated using GraphPad software (Sigmoidal dose response, variable slope equation). […] Table 6 is a table of potency measurements of MAGL inhibition measured for other compounds using the Potency Assay of Example 20 above, with the following modifications described in Table C. [table]

[1] = Method 2: MAGL (10 nM) Cayman Chemical Enzyme
[2] = Method 14: Enzyme Conc "0", Source "0", Reaction Biology prep, 6 nM
[3] = Method 6: Enzyme Conc 6, Reaction Biology (6 nM)
[4] = Method 12: Enzyme Conc 15, Reaction Biology (15 nM)

Compound: Cc1ccccc1-n1nc(C2CC3(C2)CN(C(=O)c2cc(O)ccc2F)C3)cc1C [Compound 117]
IC50 (human recombinant FAAH): > 10 µM

Compound: Cc1cc(C2CC3(C2)CN(C(=O)c2ccccc2F)C3)n(-c2ccccc2C)n1 [Compound 122, (2-fluorophenyl)(6-(3-methyl-1-(o-tolyl)-1H-pyrazol-5-yl)-2-azaspiro[3.3]heptan-2-yl)methanone]
IC50 (human recombinant FAAH): > 10 µM

Compound: COc1ccc(F)c(C(=O)N2CC3(CC(c4cc(C)nn4-c4ccccc4C)C3)C2)c1 [Compound 123, (2-fluoro-5-methoxyphenyl)(6-(3-methyl-1-(o-tolyl)-1H-pyrazol-5-y1)-2-azaspiro[3.3]heptan-2-yl)methanone]
IC50 (human recombinant FAAH): > 10 µM

Compound: Cc1cc(C2CC3(C2)CN(C(=O)c2cccc(O)c2)C3)n(-c2ccccc2C)n1 [Compound 125, (3-hydroxyphenyl)(6-(3-methyl-1-(o-tolyl)-1H-pyrazol-5-y1)-2-azaspiro[3.3]heptan-2-yl)methanone]
IC50 (human recombinant FAAH): > 10 µM

Compound: Cc1cc(C2CC3(C2)CN(C(=O)c2c(F)ccc(O)c2F)C3)n(-c2ccccc2C)n1 [Compound 127, (2,6-difluoro-3-hydroxyphenyl)(6-(3-methyl-1-(o-tolyl)-1H-pyrazol-5-yl)-2-azaspiro[3.3]heptan-2-yl)methanone]
IC50 (human recombinant FAAH): > 10 µM

Compound: COc1cc(F)ccc1CN1CC2(CC(c3cc(C)nn3-c3ccccc3C)C2)C1 [Compound 149]
IC50 (human MAGL; [1]): > 10 µM

Compound: Cc1cc(C2CC3(C2)CN(Cc2cc(O)ccc2F)C3)n(-c2ccccc2C)n1 [Compound 150, 4-fluoro-3-((6-(3-methyl-1-(o-tolyl)-1H-pyrazol-5-yl)-2-azaspiro [3.3]heptan-2-yl)methyl)phenol]
IC50 (human MAGL): > 10 µM

Compound: COC(c1cccn1C)N1CC2(CC(c3cc(C)nn3-c3ccccc3C)C2)C1 (stereo not shown) [Compound 181]
IC50 (human MAGL; [1]): > 10 µM

Compound: COC(c1ccn(C)c1)N1CC2(CC(c3cc(C)nn3-c3ccccc3C)C2)C1 (stereo not shown) [Compound 182]
IC50 (human MAGL; [1]): > 10 µM

Compound: CCOc1cc(F)ccc1C(=O)N1CC2(CC(C(=O)N(C)c3cccnc3C)C2)C1 [Compound 198]
IC50 (human MAGL; Method 4: MAGL (15 nM) Cayman Chemical Enzyme): > 10 µM

Compound: Cc1cc(C2CC3(C2)CN(C(=O)c2cc4c(cc2F)CCO4)C3)n(-c2ccccc2C)n1 [Compound 368]
IC50 (human MAGL; [2]): > 10 µM

Compound: O=C(c1cc(O)ccc1F)N1CC2(CC(C(=O)N3CCOCC3)C2)C1 [Compound 384]
IC50 (human MAGL; [2]): > 10 µM

Compound: O=C(c1cc(O)ccc1F)N1CC2(CC(C(=O)N3CCCC3)C2)C1 [Compound 388]
IC50 (human MAGL; [2]): > 10 µM

Next, values leading:

degree to which MAGL enzymatic activity returned following washout of test compounds (MAGL enzyme; pre-washout compound concentration 1 μM): 155
% MAGL activity returning after washout (MAGL enzyme; relative to control (no inhibitor before washout), immediately following 30 minute washout): >50%
Compound: Cc1cnn(C2CC3(C2)CN(C(=O)c2cc(O)ccc2F)C3)c1-c1cc(F)ccc1Cl (single isomer, unassigned) [Compound 519, {6-[5-(2-chloro-5-fluorophenyl)-4-methyl-1-pyrazolyl]-2-aza-2-spiro[3.3]heptyl}(2-fluoro-5-hydroxyphenyl)methanone]

IC50 (human MAGL; [2]): > 10 µM
Compound: O=C(c1cc(O)ccc1F)N1CC2(CC(C(=O)N3CCC4(COC4)C3)C2)C1 [Compound 391]

IC50 (human MAGL; [2]): > 10 µM
Compound: O=C(NCC1COC1)C1CC2(C1)CN(C(=O)c1cc(O)ccc1F)C2 [Compound 395]

IC50 (human MAGL; [2]): > 10 µM
Compound: Cc1cc(C2CC3(C2)CN(C(=O)c2ccc4c(c2)OCC4)C3)n(-c2ccccc2C)n1 [Compound 402]

IC50 (human MAGL; [2]): > 10 µM
Compound: Cc1cc(C2CC3(C2)CN(C(=O)c2cccc4c2CCO4)C3)n(-c2ccccc2C)n1 [Compound 403]

IC50 (human MAGL; [3]): > 10 µM
Compound: Cc1cnn(C2CC3(C2)CN(C(=O)c2cc(O)ccc2F)C3)c1-c1ccccc1Cl [Compound 404]

IC50 (human MAGL; [3]): > 10 µM
Compound: Cc1ccccc1-c1ccnn1C1CC2(C1)CN(C(=O)c1cc(O)ccc1F)C2 [Compound 405]

IC50 (human MAGL; [3]): > 10 µM
Compound: Cc1cc(-c2ccccc2C)n(C2CC3(C2)CN(C(=O)c2cc(O)ccc2F)C3)n1 [Compound 406]

IC50 (human MAGL; [3]): > 10 µM
Compound: Cc1cn(C2CC3(C2)CN(C(=O)c2cc(O)ccc2F)C3)nc1-c1ccccc1Cl [Compound 416]

IC50 (human MAGL; [3]): > 10 µM
Compound: Cc1ccccc1-c1ccn(C2CC3(C2)CN(C(=O)c2cc(O)ccc2F)C3)n1 [Compound 441]

IC50 (human MAGL; [3]): > 10 µM
Compound: Cc1ccccc1-c1cc(C)n(C2CC3(C2)CN(C(=O)c2cc(O)ccc2F)C3)n1 [Compound 442]

IC50 (human MAGL; [4]): > 10 µM
Compound: Cc1cnn(C2CC3(C2)CN(C(=O)c2cc(O)ccc2C(F)(F)F)C3)c1-c1ccccc1F [Compound 494]

IC50 (human MAGL; [4]): > 10 µM
Compound: Cc1cn(C2CC3(C2)CN(C(=O)c2cc(O)ccc2C(F)(F)F)C3)nc1-c1ccccc1F [Compound 495]

IC50 (human MAGL; [4]): > 10 µM
Compound: O=C(c1c(F)cccc1OC1CC1)N1CC2(CC(n3ncc(C(F)(F)F)c3-c3ccccc3F)C2)C1 [Compound 521]
